According to ChEMBL document CHEMBL1201862, “PubChem BioAssay data set” (2004):
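Exposure lasted 48 hours, with cells grown in 96-well plates and compounds tested at five concentrations. GI50 marks 50% less growth.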 Activity calls are given as the source filed them. Rule as the data show it: active = GI50 up to about 1.1 µM and inactive = higher.

Experiments:
Assay in all cases: growth of human tumour cells (NCI), 48 h
786-0 = system: 786-0
ACHN = system: ACHN
BT-549 = system: BT-549
COLO 205 = system: COLO 205
DU-145 = system: DU-145
EKVX = system: EKVX
HCC 2998 = system: HCC 2998
HCT-15 = system: HCT-15
HL-60 = system: HL-60
MDA-MB-231 = system: MDA-MB-231
MDA-N = system: MDA-N
OVCAR-3 = system: OVCAR-3
OVCAR-8 = system: OVCAR-8
RPMI-8226 = system: RPMI-8226
SK-OV-3 = system: SK-OV-3
SN12C = system: SN12C
SNB-19 = system: SNB-19
U-251 = system: U-251
A498 = system: A498
SF-268 = system: SF-268

SMILES	GI50 (786-0)	GI50 (ACHN)	GI50 (BT-549)	GI50 (COLO 205)	GI50 (DU-145)	GI50 (EKVX)	GI50 (HCC 2998)	GI50 (HCT-15) [µM]	GI50 (HL-60)	GI50 (MDA-MB-231)	GI50 (MDA-N)	GI50 (OVCAR-3)	GI50 (OVCAR-8)	GI50 (RPMI-8226)	GI50 (SK-OV-3)	GI50 (SN12C)	GI50 (SNB-19)	GI50 (U-251)	GI50 (A498)	GI50 (SF-268)
Cn1c2ccccc2c2c3c(c4c5ccccc5n(C)c4c21)C(=O)c1ccccc1C3=O	14.1 µM (inactive)	28.2 µM (inactive)	20.4 µM (inactive)	57.7 µM (inactive)	> 100 µM (inactive)	44.9 µM (inactive)	96.8 µM (inactive)	> 100	21 µM (inactive)	19.6 µM (inactive)	72.8 µM (inactive)	41.8 µM (inactive)	40.1 µM (inactive)	70 µM (inactive)	48.9 µM (inactive)	61.2 µM (inactive)	22.8 µM (inactive)	17.9 µM (inactive)	–	–
Oc1cc(O)c2ccc(-c3ccc(O)c(O)c3)[o+]c2c1	> 100 µM (inactive)	> 100 µM (inactive)	39.9 µM (inactive)	–	–	> 100 µM (inactive)	> 100 µM (inactive)	> 100	> 100 µM (inactive)	–	> 100 µM (inactive)	> 100 µM (inactive)	> 100 µM (inactive)	84.9 µM (inactive)	> 100 µM (inactive)	> 100 µM (inactive)	> 100 µM (inactive)	> 100 µM (inactive)	> 100 µM (inactive)	> 100 µM (inactive)
CC(C)(C)OC(=O)N1CCC(NC(=O)NC2CCN(C(=O)OC(C)(C)C)CC2)CC1	> 100 µM (inactive)	> 100 µM (inactive)	0.118 µM (active)	–	–	> 100 µM (inactive)	> 100 µM (inactive)	> 100	> 100 µM (inactive)	> 100 µM (inactive)	> 100 µM (inactive)	> 100 µM (inactive)	> 100 µM (inactive)	> 100 µM (inactive)	–	> 100 µM (inactive)	> 100 µM (inactive)	> 100 µM (inactive)	> 100 µM (inactive)	> 100 µM (inactive)
CC(C)n1c(=O)n(-c2ccccc2)n(C(C)(C)C)c1=O	> 100 µM (inactive)	> 100 µM (inactive)	> 100 µM (inactive)	> 100 µM (inactive)	–	> 100 µM (inactive)	> 100 µM (inactive)	> 100	47.4 µM (inactive)	> 100 µM (inactive)	> 100 µM (inactive)	> 100 µM (inactive)	> 100 µM (inactive)	–	> 100 µM (inactive)	> 100 µM (inactive)	> 100 µM (inactive)	> 100 µM (inactive)	> 100 µM (inactive)	–
N=C(N)N/N=C/c1c(-c2ccc(Cl)c([N+](=O)[O-])c2)nc2sc(Cl)cn12	3.15 µM (inactive)	1.98 µM (inactive)	1.69 µM (inactive)	1.64 µM (inactive)	1.95 µM (inactive)	2.83 µM (inactive)	3.27 µM (inactive)	2.29	3.45 µM (inactive)	1.97 µM (inactive)	–	1.51 µM (inactive)	1.77 µM (inactive)	2.99 µM (inactive)	–	2.32 µM (inactive)	1.79 µM (inactive)	2.95 µM (inactive)	1.95 µM (inactive)	2.68 µM (inactive)
O=C1NC(=S)NC(=O)C1=Cc1ccc(-c2ccccc2)cc1	> 100 µM (inactive)	> 100 µM (inactive)	> 100 µM (inactive)	> 100 µM (inactive)	> 100 µM (inactive)	> 100 µM (inactive)	> 100 µM (inactive)	> 100	–	99.8 µM (inactive)	> 100 µM (inactive)	> 100 µM (inactive)	49.8 µM (inactive)	66.2 µM (inactive)	> 100 µM (inactive)	> 100 µM (inactive)	> 100 µM (inactive)	54.1 µM (inactive)	–	> 100 µM (inactive)
C=C1C[C@@H]2CC[C@@]34CC5O[C@H]6C(O[C@H]7CC[C@H](CC(=O)O[C@@H]8[C@@H](C)[C@@H]9O[C@@H]%10C[C@]%11(C[C@@H]%12O[C@]%13(C[C@H](C)[C@@H]%14O[C@@H]%15CC(C(COC(C)=O)OC(C)=O)O[C@@H]%15C[C@@H]%14O%13)C[C@H](C)[C@@H]%12O%11)O[C@@H]%10C[C@@H]9O[C@H]8CC8O[C@@H](CC[C@@H]1O2)C[C@@H](C)C8(O)CO)O[C@@H]7[C@@H]6O3)[C@H]5O4 (stereo partly drawn)	0.392 µM (active)	0.708 µM (active)	0.0908 µM (active)	0.311 µM (active)	0.375 µM (active)	> 0.923 µM (active)	0.00489 µM (active)	0.527	–	> 0.776 µM (active)	–	0.431 µM (active)	0.668 µM (active)	0.413 µM (active)	> 1 µM (active)	> 0.838 µM (active)	0.701 µM (active)	0.436 µM (active)	> 0.597 µM (active)	0.455 µM (active)
CN(C)CC1CN=C(N)O1 (stereo not drawn)	> 100 µM (inactive)	> 100 µM (inactive)	–	> 100 µM (inactive)	> 100 µM (inactive)	> 100 µM (inactive)	> 100 µM (inactive)	> 100	–	> 100 µM (inactive)	> 100 µM (inactive)	> 100 µM (inactive)	–	> 100 µM (inactive)	> 100 µM (inactive)	> 100 µM (inactive)	> 100 µM (inactive)	> 100 µM (inactive)	> 100 µM (inactive)	> 100 µM (inactive)
CC(C)(C)[Si](C)(C)OC1(CCc2ccccc2OS(=O)(=O)C(F)(F)F)CCCC=C1COCc1ccccc1 (stereo not drawn)	> 100 µM (inactive)	35.4 µM (inactive)	> 100 µM (inactive)	5.85 µM (inactive)	> 100 µM (inactive)	> 100 µM (inactive)	–	12.5	2.42 µM (inactive)	> 100 µM (inactive)	–	> 100 µM (inactive)	–	2.95 µM (inactive)	> 100 µM (inactive)	–	–	5 µM (inactive)	66.4 µM (inactive)	–
COc1cc(C2c3cc4c(cc3[C@@H](Nc3ccc(F)cc3)C3COC[C@H]23)OCO4)cc(OC)c1O (stereo partly drawn)	1.75 µM (inactive)	1.03 µM (active)	–	4.73 µM (inactive)	–	9.91 µM (inactive)	6.85 µM (inactive)	2.48	0.533 µM (active)	2.74 µM (inactive)	7.66 µM (inactive)	–	2.8 µM (inactive)	1.49 µM (inactive)	4.98 µM (inactive)	2 µM (inactive)	0.885 µM (active)	0.811 µM (active)	–	3.85 µM (inactive)
NCc1ccc(-c2ccc(-c3ccc(-c4ccc(CN)s4)s3)s2)s1	> 100 µM (inactive)	> 100 µM (inactive)	–	> 100 µM (inactive)	> 100 µM (inactive)	> 100 µM (inactive)	> 100 µM (inactive)	> 100	> 100 µM (inactive)	> 100 µM (inactive)	> 100 µM (inactive)	> 100 µM (inactive)	> 100 µM (inactive)	> 100 µM (inactive)	> 100 µM (inactive)	> 100 µM (inactive)	> 100 µM (inactive)	> 100 µM (inactive)	> 100 µM (inactive)	–
CC(C)CCCC(C)[C@H]1CC[C@H]2[C@@H]3CC[C@H]4C[C@@H](CCC=C(c5cc(Cl)c(O)c(C(=O)O)c5)c5cc(Cl)c(O)c(C(=O)O)c5)CC[C@]4(C)[C@H]3CC[C@]12C (stereo partly drawn)	32.2 µM (inactive)	> 50 µM (inactive)	> 50 µM (inactive)	> 50 µM (inactive)	> 50 µM (inactive)	> 50 µM (inactive)	> 50 µM (inactive)	36.1	> 50 µM (inactive)	> 50 µM (inactive)	–	> 50 µM (inactive)	> 50 µM (inactive)	> 50 µM (inactive)	> 50 µM (inactive)	> 50 µM (inactive)	> 50 µM (inactive)	> 50 µM (inactive)	> 50 µM (inactive)	> 50 µM (inactive)
S=C1C=C(c2ccccc2)Sc2ccccc2N1	> 100 µM (inactive)	> 100 µM (inactive)	> 100 µM (inactive)	> 100 µM (inactive)	> 100 µM (inactive)	> 100 µM (inactive)	–	> 100	53.8 µM (inactive)	> 100 µM (inactive)	> 100 µM (inactive)	> 100 µM (inactive)	> 100 µM (inactive)	> 100 µM (inactive)	> 100 µM (inactive)	> 100 µM (inactive)	> 100 µM (inactive)	> 100 µM (inactive)	–	> 100 µM (inactive)
S=P1(Oc2ccccc2)NNP2(=NP(N3CC3)(N3CC3)=NP(N3CC3)(N3CC3)=N2)NN1 (stereo not drawn)	> 100 µM (inactive)	> 100 µM (inactive)	–	> 100 µM (inactive)	–	> 100 µM (inactive)	> 100 µM (inactive)	> 100	30.4 µM (inactive)	–	–	> 100 µM (inactive)	> 100 µM (inactive)	> 100 µM (inactive)	> 100 µM (inactive)	84.1 µM (inactive)	> 100 µM (inactive)	> 100 µM (inactive)	> 100 µM (inactive)	78.3 µM (inactive)
O=C1CC(C(COCc2ccccc2)OCc2ccccc2)CC(=O)N1 (stereo not drawn)	> 100 µM (inactive)	> 100 µM (inactive)	45 µM (inactive)	–	> 100 µM (inactive)	> 100 µM (inactive)	> 100 µM (inactive)	> 100	> 100 µM (inactive)	> 100 µM (inactive)	> 100 µM (inactive)	> 100 µM (inactive)	> 100 µM (inactive)	> 100 µM (inactive)	–	> 100 µM (inactive)	> 100 µM (inactive)	> 100 µM (inactive)	–	> 100 µM (inactive)
